Data as given in US20250154145A1, “OXER1 ANTAGONISTS AND USES THEREOF” (Fairhaven Pharmaceuticals Ins., priority 2021, published 2025).

system: neutrophils; assay: Neutrophil calcium flux assay (5-OXO-ETE-stimulated, Indo-1 fluorescence); assay type: cell-based; details: Neutrophil, 5-OXO-ETE-stimulated calcium flux
Procedure: After isolation, neutrophils were resuspended in PBS without calcium and Magnesium (PBS −/−) at a concentration of 5×10^6 cells/ml. 2ul of Indo-1 (1 mM) were added per ml of cells. After incubation at 37° C. for 30 minutes, cells were washed twice in PBS −/− and resuspended at 5×10^6 cells/ml in assay buffer (HBSS 1× with calcium and magnesium and […]). In a 96-well Black optical clear bottom plate 100 μL of neutrophil were dispensed to each well. After incubation at 37° C. for 5 minutes, 50 μL of assay buffer or 3× antagonist were added and incubated for 5 min in a Tecan Spark plate reader (Tecan, Morrisville, NC). Baseline was measured for 30 sec (wavelength setup: excitation: 331 nm and emission:410 nm). When baseline is stable, 50p of 5-OXO-ETE at 200 nM (4×) or HBSS was added to appropriate wells. Fluorescence was measured every 5 seconds for 30 cycles. Results are expressed as Net fluorescence (FLU minus Background and injection peak). All data were analyzed using GraphPad Prism version 9 for Windows (GraphPad, San Diego, CA).

| SMILES | IC50 |
| --- | --- |
| Cn1c(CCCCOCc2cccc(Cl)c2)c(C(=O)N2CC[C@H](c3nnn[nH]3)C2)c2cc(C(F)(F)F)ccc21 [Compound I-188] | 100 to 300 nM |
| C[C@H](CC(=O)O)CC(=O)c1c(CCCCOCc2cccc(Cl)c2)[nH]c2ccc(Cl)cc12 [Compound I-189] | 100 to 300 nM |
| Cn1nc(-c2cccc(Cl)c2)c(C(=O)N2CC[C@H](C(=O)O)C2)c1CCCCOCc1cccc(Cl)c1 [Compound I-191] | > 300 nM |
| Cn1nc(CCCCOCc2cccc(Cl)c2)c(C(=O)N2CC[C@H](C(=O)O)C2)c1-c1cccc(Cl)c1 [Compound I-192] | > 300 nM |
| C[C@H](CC(=O)O)CC(=O)c1c(CCCCOCc2cccc(C#N)c2)n(C)c2ncc(Cl)cc12 [Compound I-212] | < 100 nM |
| C[C@@H](CC(=O)O)CC(=O)c1c(CCCCOCc2cccc(C#N)c2)n(C)c2ncc(Cl)cc12 [Compound I-213] | > 300 nM |
| C[C@H](CC(=O)O)CC(=O)c1c(CCCCOCc2ccc(F)cc2)n(C)c2ncc(Cl)cc12 [Compound I-215] | > 300 nM |
| C[C@@H](CC(=O)O)CC(=O)c1c(CCCCOCc2ccc(F)cc2)n(C)c2ncc(Cl)cc12 [Compound I-216] | > 300 nM |
| CC(CC(=O)O)CC(=O)c1c(CCCCCC(O)c2ccc(F)cc2)n(C)c2ncc(Cl)cc12 (stereo not drawn) [Compound I-218] | > 300 nM |
| CC(CC(=O)O)CC(=O)c1c(CCOCCNc2ccc(F)cc2)n(C)c2ccc(Cl)cc12 (stereo not drawn) [Compound I-220] | > 300 nM |
| Cn1c(CCCCCCc2cccc(Cl)c2)c(C(=O)N2CC[C@H](c3nnn[nH]3)C2)c2cc(C#N)cnc21 [Compound I-223] | < 100 nM |
| Cn1c(CCCCOCc2cccc(Cl)c2)c(C(=O)N2CC[C@H](c3nnn[nH]3)C2)c2cc(C#N)cnc21 [Compound I-224] | 100 to 300 nM |
| Cn1c(CCCCCC(O)c2cccc(Cl)c2)c(C(=O)N2CC[C@H](c3nnn[nH]3)C2)c2cc(C#N)cnc21 (stereo partly drawn) [Compound I-225] | 100 to 300 nM |
| CC(CC(=O)O)CC(=O)c1c(CCCCC#Cc2ccc(F)nc2)n(C)c2ncc(Cl)cc12 (stereo not drawn) [Compound I-227] | > 300 nM |
| C[C@H](CC(=O)O)CC(=O)c1c(CCOCC#Cc2cccnc2)n(C)c2ncc(Cl)cc12 [Compound I-228] | > 300 nM |
| C[C@H](CC(=O)O)CC(=O)c1c(CCOCC#Cc2ccc(F)nc2)n(C)c2ncc(Cl)cc12 [Compound I-229] | 100 to 300 nM |
| CC(CC(=O)O)CC(=O)c1c(CCCCOCc2cccc(F)c2)n(C)c2ncc(C#N)cc12 (stereo not drawn) [Compound I-231] | < 100 nM |
| C[C@H](CC(=O)O)NC(=O)c1c(CCCCCCc2cccc(Cl)c2)n(C)c2ccc(Cl)cc12 [Compound I-237] | > 300 nM |
| C[C@H](CC(=O)O)NC(=O)c1c(CCCCOCc2cccc(Cl)c2)n(C)c2ncc(C#N)cc12 [Compound I-238] | > 300 nM |
| C[C@H](CC(=O)O)N(C)C(=O)c1c(CCCCCCc2cccc(Cl)c2)n(C)c2ccc(Cl)cc12 [Compound I-239] | > 300 nM |
| C[C@H](CC(=O)O)N(C)C(=O)c1c(CCCCOCc2cccc(Cl)c2)n(C)c2ncc(C#N)cc12 [Compound I-240] | > 300 nM |
| CC(CNC(=O)c1c(CCCCCCc2cccc(Cl)c2)n(C)c2ccc(Cl)cc12)C(=O)O (stereo not drawn) [Compound I-241] | > 300 nM |
| CC(CNC(=O)c1c(CCCCOCc2cccc(Cl)c2)n(C)c2ncc(C#N)cc12)C(=O)O (stereo not drawn) [Compound I-242] | > 300 nM |
| CC(CN(C)C(=O)c1c(CCCCCCc2cccc(Cl)c2)n(C)c2ccc(Cl)cc12)C(=O)O (stereo not drawn) [Compound I-243] | > 300 nM |
| CC(CN(C)C(=O)c1c(CCCCOCc2cccc(Cl)c2)n(C)c2ncc(C#N)cc12)C(=O)O (stereo not drawn) [Compound I-244] | > 300 nM |
| C[C@H](CC(=O)O)CC(=O)c1c(CCOCCNc2cccc(F)c2)n(C)c2ncc(C#N)cc12 [Compound I-246] | 100 to 300 nM |

| SMILES | IC50 |
| --- | --- |
| C[C@H](CC(=O)O)CC(=O)c1c(CCCCOCc2ccc(F)cc2)n(C)c2ncc(C#N)cc12 [Compound I-249] | < 100 nM |
| CC(CC(=O)O)CC(=O)c1c(CCCCCCC#CC2CC(F)(F)C2)n(C)c2ccc(Cl)cc12 (stereo not drawn) [Compound I-278] | < 100 nM |
| C[C@H](CC(=O)O)CC(=O)c1c(CCCCCCc2cccc(Cl)c2)n(CCO)c2ncc(C#N)cc12 [Compound I-279] | < 100 nM |
| C[C@@H](CC(=O)O)CC(=O)c1c(CCCCCCc2cccc(Cl)c2)n(CCO)c2ncc(C#N)cc12 [Compound I-280] | > 300 nM |
| CC(CC(=O)O)CC(=O)c1c(CCCCCCc2cccc(Cl)c2)n(CCN(C)C)c2ncc(C#N)cc12 (stereo not drawn) [Compound I-281] | > 300 nM |
| CC(CC(=O)O)CC(=O)c1c(CCCCCCc2cccc(Cl)c2)n(C[C@H](O)CO)c2ncc(C#N)cc12 (stereo partly drawn) [Compound I-282] | > 300 nM |
| CC(CC(=O)O)CC(=O)c1c(CCCCCCc2cccc(Cl)c2)n(C[C@@H](O)CO)c2ncc(C(N)=O)cc12 (stereo partly drawn) [Compound I-283] | 100 to 300 nM |
| CC(CC(=O)O)CC(=O)c1c(CCCCCCc2cccc(Cl)c2)n(C[C@@H](O)CO)c2ncc(C#N)cc12 (stereo partly drawn) [Compound I-284] | < 100 nM |
| CC(CC(=O)O)CC(=O)c1c(CCCCCCc2cccc(C#N)c2)n(C)c2ncc(Cl)cc12 (stereo not drawn) [Compound I-285] | < 100 nM |
| CC(CC(=O)O)CC(=O)c1c(CCCCCC(O)c2cccc(C#N)c2)n(C)c2ncc(Cl)cc12 (stereo not drawn) [Compound I-286] | < 100 nM |
| CC(CNC(=O)c1c(CCCCOCc2cccc(Cl)c2)n(C)c2ncc(C(N)=O)cc12)C(=O)O (stereo not drawn) [Compound I-287] | > 300 nM |
| CC(CC(=O)O)CC(=O)c1c(CCOCCNc2cccc(Cl)c2)n(C)c2ncc(C#N)cc12 (stereo not drawn) [Compound I-288] | 100 to 300 nM |
| CC(CC(=O)O)CC(=O)c1c(CCOCCNc2ccccc2)n(C)c2ncc(C#N)cc12 (stereo not drawn) [Compound I-289] | 100 to 300 nM |
| CC(CC(=O)O)CC(=O)c1c(CCCCOCc2ccc(Cl)cc2)n(C)c2ncc(C#N)cc12 (stereo not drawn) [Compound I-290] | 100 to 300 nM |
| CC(CC(=O)O)CC(=O)c1c(CCCCOCc2ccc(F)c(Cl)c2)n(C)c2ncc(C#N)cc12 (stereo not drawn) [Compound I-291] | < 100 nM |
| CC(CC(=O)O)CC(=O)c1c2cc(C#N)cnc2n(C)c1[C@H]1CC[C@@H](OCc2cccc(Cl)c2)CC1 (stereo partly drawn) [Compound I-292] | > 300 nM |
| C[C@H](CC(=O)O)CC(=O)c1c(CCCCOCc2cccc(F)c2)n(C)c2ncc(C#N)cc12 [Compound I-293] | < 100 nM |
| C[C@@H](CC(=O)O)CC(=O)c1c(CCCCOCc2cccc(F)c2)n(C)c2ncc(C#N)cc12 [Compound I-294] | > 300 nM |
| CC(CC(=O)O)CC(=O)c1c(C2CCN(CCc3cccc(Cl)c3)CC2)n(C)c2ncc(C#N)cc12 (stereo not drawn) [Compound I-295] | > 300 nM |
| CC(CC(=O)O)CC(=O)c1c(CCOCCNc2cccc(F)c2)n(C)c2ncc(C#N)cc12 (stereo not drawn) [Compound I-296] | 100 to 300 nM |
| CC(CC(=O)O)CC(=O)c1c(CCCCOCc2ccc(F)cc2)n(C)c2ncc(C#N)cc12 (stereo not drawn) [Compound I-297] | < 100 nM |
| CC(=O)Nc1cccc(COCCCCc2c(C(=O)CC(C)CC(=O)O)c3cc(C#N)cnc3n2C)c1 (stereo not drawn) [Compound I-298] | 100 to 300 nM |
| CC(=O)N(C)c1cccc(COCCCCc2c(C(=O)CC(C)CC(=O)O)c3cc(C#N)cnc3n2C)c1 (stereo not drawn) [Compound I-299] | 100 to 300 nM |
| CC(CC(=O)NS(C)(=O)=O)CC(=O)c1c(CCCCOCc2cccc(Cl)c2)n(C)c2ccc(C#N)cc12 (stereo not drawn) [Compound I-300] | > 300 nM |
| CC(CC(=O)O)CC(=O)c1c(CCCCCC(O)c2ccc(F)c(Cl)c2)n(C)c2ncc(C#N)cc12 (stereo not drawn) [Compound I-301] | < 100 nM |
